This note sets out measurements from patent publication US20260286316A1, “METHOD OF PRODUCTION OF MODIFIED PHAGE AND METHOD OF TREATMENT USING SAME” (priority 2022, published 2026).

Values after ≈ are worked out from the molar mass of the structure shown.

The test system of one test is S. aureus ATCC25923. Put plainly: Clindamycin MIC assay (Example 2). Format: cell-based. To be noted: Staphylococcus aureus; strain ATCC25923. The procedure: (§1) The MIC of clindamycin against the S. aureus strains was assessed using the broth microdilution technique as previously described (see Wiegand et al., 2008 supra). Results were interpreted as follows: Sensitive: ≤0.2 μg/mL; Intermediate: 0.4 μg/ml; Resistant: >0.6 μg/mL. The S. aureus strains sensitive to clindamycin were selected for further tests. The MIC was performed three times.

The subject of the next test is S. aureus C43. Description: Clindamycin MIC assay (Example 2). Format: cell-based. As to conditions: Staphylococcus aureus; strain C43. The procedure: as §1
A further test has as its system S. aureus C330. Put plainly: Clindamycin MIC assay (Example 2). Format: cell-based. To be noted: Staphylococcus aureus; strain C330. The procedure:
as §1

The next test deals with S. aureus C319. Description: Clindamycin MIC assay (Example 2). As to conditions: Staphylococcus aureus; strain C319. The test is classed as cell-based. As to the method: as §1
The test system of the next test is S. aureus C285. Description: Clindamycin MIC assay (Example 2). To be noted: Staphylococcus aureus; strain C285. The test is classed as cell-based. The procedure:
as §1

Test [1] deals with S. aureus ATCC51650 and CI11. Description: Dose-dependence of clindamycin in combination with phage J-Sa36 (OD600). Format: cell-based, Staphylococcus aureus. As to conditions: with J-Sa36 MOI=0.2, 24 hours; ⅛th the MIC. As to the method: (§2) Initial screening was performed in 100 μl in 96 well plates, with follow up experiments in 10 mL culture volume. S. aureus strains were grown on 1.5% Tryptone Soya Agar (TSA) at 37° C. overnight. Single colonies were transferred to Tryptone Soya Broth (TSB) to generate a culture with a starting concentration of 5×10^5 CFU/ml. […] Antibiotics were added to the cultures at ½ MIC (according to the pretest MIC of antibiotics) if required. Optical density (OD) readings at 600 nm were recorded at 24 hours to assess the growth of bacteria co-inoculated with phage unless otherwise specified. Uninoculated, fresh media was included as a sterility control.

In test [2] the test system is S. aureus CI3. Put plainly: Rat rhinosinusitis model, efficacy arm (sinus mucosa CFU, biofilm biomass, histopathology). The test is classed as in vivo, Sprague Dawley rats. As to conditions: Sa87, ½ MIC clindamycin or ½ MIC azithromycin only. The text has this:
Rat nasal tissues were fixed in 10% neutral buffered formalin. Tissue samples were then decalcified using 9.5% nitric acid in 1% ethylenediaminetetracetic acid (EDTA), processed to paraffin wax, and 6 μm sections cut and stained with H&E. The samples were examined by a veterinary pathologist blinded to the treatments given.
An established murine rhinosinusitis model was used with modifications (see YU C-j et al., Chinese Journal of Otorhinolaryngology-Skull Base Surgery 6, 2011; Zhang F et al., Am J Rhinol Allergy 27 (5): 361-366, 2013; and Jin M et al., Ear Arch Oto-Rhino-L 268 (6): 857-861, 2011). […] The sponges were placed at approximately 15 mm from the anterior nostril, located in the ostiomeatal complex. The rats were monitored for a nine-day period to allow for mucosal biofilms to form, and, on the tenth day, the sponges were removed. A two-day recovery was given to the rat before treatments begun. […] Treatments were administered intranasally twice a day for 14 days. Rats were monitored for weight and respiratory alterations (respiration rate; nasal discharge, hyperaemia or pruritus; and sneezing) during treatment, and, 14 days post-treatment initiation, the rats were humanely sacrificed. Their sinus mucosa was harvested for CFU counting, biofilm quantification, histopathology, and phage enumeration. […]
The quantification of biofilm biomass on sinus mucosa was determined using an established protocol (Singhal D et al., editors. Quantitative analysis of in vivo mucosal bacterial biofilms. International Forum of Allergy & Rhinology; 2012: Wiley Online Library (27). Briefly, the frontal sinus mucosa was harvested and placed into Dulbecco's Modified Eagle's Medium (Life Technologies, Carlsbad, CA, United States of America) on ice. One piece of mucosa from each frontal sinus was stained with a LIVE/DEAD® BacLight Bacterial Viability Kit (Life Technologies Australia). The stained mucosa was then examined at 20× magnification using a confocal laser scanning microscope (Zeiss LSM700, Carl Zeiss AG, Oberkochen, Germany). […]

In a further test the test system is S. aureus CI11. Put plainly: Phage replication by titer. As to conditions: 48 hours incubation. The test is classed as cell-based, Staphylococcus aureus. As to the method: (§3) Phage titers were determined against S. aureus RN4220 (ATCC) using the double layer spot assay technique. Briefly, 100 μl of a S. aureus overnight culture was mixed with 4 mL of 0.4% TSA and poured onto a 1.5% TSA plate. […] After the plates were incubated in a humidified incubator at 37° C. overnight, plaques were counted, counts were averaged, and titers of the filtrate were calculated based on the dilution.
(§4) A 100 μl sample was taken from an S. aureus culture (10 ml in TSB) after 0 and 48 hours following treatment with clindamycin, phage or a phage clindamycin co-incubation. The sample was treated with 25 μl of chloroform, shaken for 30 seconds, centrifuged (3000 rpm, 5 minutes, room temperature) and the supernatant used to determine phage titers against the same isolate. Phage titers in plaque forming units [PFU]/mL were recorded initially and at 48 hours to assess for phage replication. To allow for phage resistant (phage insensitive) bacterial isolates to show plaques, clindamycin was added to the soft agar overlay.

In the next test the test system is S. aureus ATCC51650. Description: Phage replication by titer. The test is classed as cell-based, Staphylococcus aureus. To be noted: 48 hours incubation. The procedure: as §3, §4
A further test relates to S. aureus CI8. Put plainly: Phage replication by titer. The test is classed as cell-based, Staphylococcus aureus. As to conditions: 48 hours incubation. As to the method: as §3, §4
For test [3], the system named is S. aureus CI3. Put plainly: Phage combined with ½ MIC antibiotics on planktonic S. aureus (OD600), CI3. Format: cell-based, Staphylococcus aureus. As to conditions: ½ MIC antibiotic, phage MOI=0.2, 24 hours. As to the method: as §2

As to `CCC[C@@H]1C[C@@H](C(=O)N[C@@H]([C@H]2O[C@H](SC)[C@H](O)[C@@H](O)[C@H]2O)[C@H](C)Cl)N(C)C1` [clindamycin], the MIC in the test with S. aureus ATCC25923, in the test with S. aureus C43, against S. aureus C330, against S. aureus C319 and with S. aureus C285 was 0.2 µg/mL (≈ 0.471 µM) each time. For the same compound, the “lowest effective concentration of clindamycin required to facilitate phage J-Sa36 killing” value in test [1] was determined as 0.025 µg/mL. The “histopathology of the maxilloturbinates, single agent” value with S. aureus CI3 [2] was “evidence of cilial denudation and surface epithelial erosion”. The “plaques from supernatant after ½ MIC clindamycin only” value in the test on S. aureus CI11, in the test with S. aureus ATCC51650 and in the test on S. aureus CI8 was “produced no plaques” in each case. Besides, the “synergistic effects with phage J-Sa36, Sa83 and Sa87 on bacterial viability (OD600)” value in the test on S. aureus CI3 [3] is “synergistic effects”.

What is called MIC is the smallest concentration in the dilution series that meets the test's criterion for growth inhibition.
